The subject of one assay is VCaP cells. As to the kind of experiment: Cellular growth inhibition assay for VCaP cells (CellTiter-Glo 2.0, 72 hours). In kind it is cell-based, human.
For the next assay, the system named is T47D cells. In words: Cellular growth inhibition assay for T47D cells (CellTiter-Glo 2.0, 72 hours). It counts as cell-based, human. Particulars: Homo sapiens, T47D, 72 h. How it is done:
Exemplary compounds were tested for ability to inhibit the proliferation of T47D cells. T47D cells are a commercially available human breast cancer cell line.
T47D cells were purchased from American Type Cell Culture (ATCC Cat #HTB-133) and then seeded on poly-D-lysine coated, black clear-bottom 384-well plates at 3000/well in 25 μL Dulbecco's Modified Eagle Medium (DMEM) supplemented with 10% w/w Fetal bovine serum (FBS), 0.2 units/mL recombinant human insulin (Gibco Cat #12585014), and 1% w/w Pen-Strep. Pen-Strep is a commercially available mixture of penicillin G and streptomycin, which is used in mammalian cell culture media to prevent bacterial contamination. Dulbecco's Modified Eagle Medium (DMEM) supplemented with 10% w/w fetal bovine serum (FBS), 0.2 units/mL recombinant human insulin, and 1% w/w Pen-Strep is herein referred to as Treatment Medium. Following seeding of cells in the plates, the plates were spun at 300×g for 30 seconds, then equilibrated to room temperature for 30 minutes, and then deposited in a humidified tissue culture incubator maintained at 37° C. with 5% CO2.
At 24 hours after seeding of the cells, dilutions of test compound were prepared in DMSO and dissolved in Treatment Medium, to achieve a final DMSO concentration of 0.5% w/w, thereby providing the Test Compound Solution. A 25 μL aliquot of the Test Compound Solution was added to cells in the well plates. An equal volume of a solution containing DMSO and Treatment Medium was used as a negative control. Following treatment of cells with Test Compound Solution or said equal volume of a solution containing DMSO and Treatment Medium, the plates were spun at 300×g for 30 seconds, and then left in an incubator for 72 hours.
At the end of the treatment duration, cell viability was quantified with CellTiter-Glo 2.0 reagent (Promega Cat #G9243). For this purpose, plates were equilibrated to room temperature for 30 minutes, and then 25 μL of CellTiter-Glo 2.0 reagent was added to cells in the plate wells. Plates were then agitated on a shaker for two minutes at 500 rpm and subsequently incubated at room temperature for 10 minutes. Following incubation, the plates were spun at 3000×g for 30 seconds, then sealed with an optical adhesive cover, and luminescence readings were measured with an En Vision Plate Reader (Perkin Elmer).
Data was normalized using zero luminescence for baseline. A four-parameter non-linear regression curve fit was applied to dose-response data in GraphPad Prism data analysis software to determine the half-maximal growth inhibitory concentration (GI50) for each test compound.

Consider `COc1cc(O[C@H]2C(C)(C)[C@H](NC(=O)c3cnc(N4CCC5(CC4)CC(Oc4ccc(C6=N[C@@H](Cc7ncco7)c7nnc(C)n7-c7sc(C)c(C)c76)cc4)C5)nc3)C2(C)C)ccc1C#N` [II-5, N-[(1r,3r)-3-(4-cyano-3-methoxy-phenoxy)-2,2,4,4-tetramethyl-cyclobutyl]-2-[2-[4-[(9S)-4,5,13-trimethyl-9-(oxazol-2-ylmethyl)-3-thia-1,8,11,12-tetrazatricyclo[8.3.0.0^2,6]trideca-2 (6),4,7,10,12-pentaen-7-yl]phenoxy]-7-azaspiro[3.5]nonan-7-yl]pyrimidine-5-carboxamide], for which the “Ratio of GI50's” value with VCaP cells (GI50 of the top compound in the pair divided by GI50 of the lower compound) was determined as 1. The GI50 in the assay on VCaP cells (Homo sapiens, VCaP, 72 h, CellTiter-Glo 2.0) was less than 500 nM; in the assay on T47D cells, less than 500 nM.

For the origin of these results see patent US12668599B2, “Heterobifunctional compounds and methods of treating disease” (Halda Therapeutics OpCo, Inc., priority 2023, dated 2026).
